Where a name gives a salt, the structure may show the parent alone. Read-outs that look alike come from different tables or passages of the source.
Legend:
Experiment in all cases: biochemical
[1] = target: T1, MMP-2 (Homo sapiens, UniProt P08253)
T1 construct: made in house; provided by Dr. Gregory Goldberg, Washington University
T1 sequence (P08253 110-660): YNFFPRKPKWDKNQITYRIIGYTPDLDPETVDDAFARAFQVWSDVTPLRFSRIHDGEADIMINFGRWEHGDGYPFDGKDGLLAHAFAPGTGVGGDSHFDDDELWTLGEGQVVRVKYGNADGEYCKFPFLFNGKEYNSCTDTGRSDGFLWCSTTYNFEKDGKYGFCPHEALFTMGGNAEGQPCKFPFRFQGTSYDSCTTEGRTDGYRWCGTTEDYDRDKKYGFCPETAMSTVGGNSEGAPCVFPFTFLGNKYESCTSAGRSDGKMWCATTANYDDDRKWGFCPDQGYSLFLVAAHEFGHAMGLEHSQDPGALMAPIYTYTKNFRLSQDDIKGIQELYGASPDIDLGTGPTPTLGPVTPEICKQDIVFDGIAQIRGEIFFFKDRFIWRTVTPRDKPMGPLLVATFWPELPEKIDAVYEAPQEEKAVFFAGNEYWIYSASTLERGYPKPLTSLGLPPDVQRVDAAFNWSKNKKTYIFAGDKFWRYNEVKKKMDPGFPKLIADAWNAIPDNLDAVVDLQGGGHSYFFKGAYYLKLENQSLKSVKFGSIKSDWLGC
Outline: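 Assay buffer 100 mM Tris-HCl, 100 mM NaCl, 10 mM CaCl2, pH 7.5. Activated MMP + inhibitor, 5 min RT; then methoxycoumarin peptide substrate, 4 μM final. Readout fluorescence; IC50 calculated.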

[2] = target: T2, MMP-13 (Homo sapiens, UniProt P45452)
T2 construct: made in house; host or cells: baculovirus / insect cells
Outline: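 APMA- or trypsin-activated enzymes were preincubated with inhibitor for 5 min at room temperature, then the fluorogenic substrate MCA-Pro-Leu-Gly-Leu-Dpa-Ala-Arg-NH2 was added to a final 4 μM.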

[3] = target: T3, MMP-1 (Homo sapiens, UniProt P03956); settings: read-out: MMP-1 IC50
T3 construct: made in house; host or cells: transfected HT-1080 cells (provided by Dr. Harold Welgus, Washington University)
T3 sequence (P03956 100-469): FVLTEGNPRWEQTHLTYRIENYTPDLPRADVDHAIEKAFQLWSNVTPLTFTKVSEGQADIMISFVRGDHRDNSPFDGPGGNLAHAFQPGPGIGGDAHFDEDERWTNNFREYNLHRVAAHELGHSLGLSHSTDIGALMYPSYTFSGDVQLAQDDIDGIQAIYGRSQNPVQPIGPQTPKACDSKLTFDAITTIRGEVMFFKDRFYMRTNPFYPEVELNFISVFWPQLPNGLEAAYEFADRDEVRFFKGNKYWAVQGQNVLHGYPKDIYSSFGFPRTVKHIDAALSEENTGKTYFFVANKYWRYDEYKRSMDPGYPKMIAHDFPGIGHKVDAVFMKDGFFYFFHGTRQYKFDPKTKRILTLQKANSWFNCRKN
Outline: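 Substrate MCA-PLGL-Dpa-AR-NH2 at 4 μM final; pH 7.5 Tris/NaCl/CaCl2 buffer with 0.05% polyethyleneglycol lauryl ether, 1% DMSO, room temperature. MMP-1 was expressed in transfected HT-1080 cells and APMA-activated.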

[4] = recombinant human MMP-2, MCA peptide substrate 4 μM, pH 7.5, room temperature, read-out: MMP-2 IC50
[5] = recombinant human MMP-13, MCA peptide substrate 4 μM, pH 7.5, room temperature, read-out: MMP-13 IC50
[6] = recombinant human MMP-1, MCA peptide substrate 4 μM, pH 7.5, room temperature

IC50 [1, 4]	IC50 [2, 5]	IC50 [3, 6]	Compound	IC50 ([1]; MMP-2 IC50 (nM))	IC50 ([1]; read-out: MMP-2 IC50)	IC50 ([2]; read-out: MMP-13 IC50)	IC50 [3]	IC50 ([2]; MMP-13 IC50 (nM))
2300 nM	15.8 nM	> 10 µM	CCC(C)CCOCc1ccc(COC2CCN(c3ccc(S(=O)(=O)C4(C(=O)NO)CCOCC4)cc3)CC2)cc1 (stereo not drawn) [Example 603]					
13.7 nM	4 nM	> 10 µM	O=C(NO)C1(S(=O)(=O)c2ccc(N3CCC(Oc4ccc(Cl)cc4F)CC3)cc2)CCOCC1 [Example 641]					
455 nM	14.8 nM	> 10 µM	O=C(NO)C1(S(=O)(=O)c2ccc(N3CCN(S(=O)(=O)c4ccccc4OC(F)(F)F)CC3)cc2)CCOCC1 [Example 673]					
13.8 nM	15.8 nM	0.48 µM	O=C(NO)C1(S(=O)(=O)c2ccc(Oc3cccnc3)cc2)CCSCC1 [Example 149]					
			O=C(C1CCN(c2ccc(S(=O)(=O)C3(C(=O)NO)CCOCC3)cc2)CC1)N1CCN(c2cccc(Cl)c2)CC1 [Example 43]		5000 nM	17.9 nM	> 10 µM	
225 nM	27.8 nM	> 10 µM	O=C(NO)C1(S(=O)(=O)c2ccc(N3CCC(Oc4cccc(C(F)(F)F)c4)CC3)cc2)CCOCC1 [Example 620]					
700 nM	37.2 nM	> 10 µM	O=C(NO)C1(S(=O)(=O)c2ccc(N3CCC(OCc4cccnc4)CC3)cc2)CCOCC1 [Example 580]					
4 nM	6 nM	> 10 µM	CC(C)c1cccc(OC2CCN(c3ccc(S(=O)(=O)C4(C(=O)NO)CCOCC4)cc3)CC2)c1 [Example 482]					
< 0.1 nM	0.2 nM	3 µM	O=C(NO)C1(S(=O)(=O)c2ccc(Oc3ccc(OC(F)(F)F)cc3)cc2)CCN(C(=S)NCCN2CCCCC2)CC1 [Example 200]					
0.1 nM	0.2 nM	> 10 µM	O=C(NO)C1(S(=O)(=O)c2ccc(Oc3ccc(SC(F)(F)F)cc3)cc2)CCNCC1 [Example 231, N-Hydroxy-4-[[4-[4-[(trifluoromethyl)thio]phenoxy]phenyl]-sulfonyl]-4-piperidinecarboxamide, Monohydrochloride]					
1900 nM	210 nM	> 10 µM	CC(C)(C)OC1CCN(c2ccc(S(=O)(=O)C3(C(=O)NO)CCOCC3)cc2)CC1 [Example 693]					
< 0.1 nM	1.6 nM	> 10 µM	O=C(NO)C1(S(=O)(=O)c2ccc(Oc3ccc(OC(F)(F)F)cc3)cc2)CCN(S(=O)(=O)c2cccc(C(F)(F)F)c2)CC1 [Example 196]					
1 nM	1.8 nM	> 10 µM	O=C(NO)C1(S(=O)(=O)c2ccc(N3CC=C(c4ccccc4)CC3)cc2)CCOCC1 [Example 587]					
480 nM	27 nM	> 10 µM	CC1CN(c2ccc(S(=O)(=O)C3(C(=O)NO)CCOCC3)cc2)CCC1OCc1ccccc1 (stereo not drawn) [Example 581]					
50 nM	12.8 nM	> 10 µM	Nc1ccc(OC2CCN(c3ccc(S(=O)(=O)C4(C(=O)NO)CCOCC4)cc3)CC2)cc1 [Example 553]					
10 nM	13 nM	> 10 µM	O=C(NO)C1(S(=O)(=O)c2ccc(N3CC[C@@H](OCc4ccc(F)cc4)C3)cc2)CCOCC1 [Example 531]					
220 nM	6.3 nM	> 10 µM	O=C(NO)C1(S(=O)(=O)c2ccc(N3CCCC(COCc4ccccc4)C3)cc2)CCOCC1 (stereo not drawn) [Example 504]					
250 nM	3 nM	> 10 µM	O=C(NO)C1(S(=O)(=O)c2ccc(N3CCC(OCc4ccc(COCC(F)(F)C(F)F)cc4)CC3)cc2)CCOCC1 [Example 608]					
			O=C(C1CCN(c2ccc(S(=O)(=O)C3(C(=O)NO)CCOCC3)cc2)CC1)N1CCN(c2nccc(C(F)(F)F)n2)CC1 [Example 49]		6500 nM	20 nM	> 10 µM	
94 nM	2.4 nM	> 10 µM	COCc1ccc(COC2CCN(c3ccc(S(=O)(=O)C4(C(=O)NO)CCOCC4)cc3)CC2)cc1 [Example 522]					

Compound	IC50 [1, 4]	IC50 [2, 5]	IC50 [3, 6]	IC50 ([1]; MMP-2 IC50 (nM))	IC50 ([1]; read-out: MMP-2 IC50)	IC50 ([2]; read-out: MMP-13 IC50)	IC50 [3]	IC50 ([2]; MMP-13 IC50 (nM))
O=C(NO)C1(S(=O)(=O)c2ccc(N3CCN(c4ccccc4F)CC3)cc2)CCOCC1 [Example 83]		2.7 nM	3.1 µM	21.1 nM				
O=C(NO)C1(S(=O)(=O)c2ccc(N3CCC(OCc4ccc(COCC(F)(F)C(F)(F)C(F)(F)C(F)F)cc4)CC3)cc2)CCOCC1 [Example 611]	1800 nM	139 nM	> 10 µM					
CC1CC(C)CN(C(=O)C2CCN(c3ccc(S(=O)(=O)C4(C(=O)NO)CCN(C(=O)CN(C)CCN(C)C)CC4)cc3)CC2)C1 (stereo not drawn) [Example 287]	> 10000 nM	150 nM	> 10 µM					
CC1CC(C)CN(C(=O)C2CCN(c3ccc(S(=O)(=O)C4(C(=O)NO)CCN(C(=O)CN5CCC(C(N)=O)CC5)CC4)cc3)CC2)C1 (stereo not drawn) [Example 300]	> 10000 nM	37.3 nM	> 10 µM					
CCNCC(=O)N1CCC(C(=O)NO)(S(=O)(=O)c2ccc(N3CCC(C(=O)N4CC(C)CC(C)C4)CC3)cc2)CC1 (stereo not drawn) [Example 277]	> 10000 nM	70 nM	> 10 µM					
Cn1c(=O)n(C2CCN(c3ccc(S(=O)(=O)C4(C(=O)NO)CCOCC4)cc3)CC2)c2ccccc21 [Example 589]	> 10000 nM	70 nM	> 10 µM					
CC1CC(C)CN(C(=O)C2CCN(c3ccc(S(=O)(=O)C4(C(=O)NO)CCN(C(=O)CN5CCOCC5)CC4)cc3)CC2)C1 (stereo not drawn) [Example 283]	> 10000 nM	13.8 nM	> 10 µM					
CC1CC(C)CN(C(=O)C2CCN(c3ccc(S(=O)(=O)C4(C(=O)NO)CCN(C(=O)CN5CCCCC5)CC4)cc3)CC2)C1 (stereo not drawn) [Example 296]	> 10000 nM	50 nM	> 10 µM					
O=C(NO)C1(S(=O)(=O)c2ccc(Oc3ccc(C(F)(F)F)cc3)cc2)CCN(c2ccccn2)CC1 [Example 395]	0.5 nM	0.9 nM	> 10 µM					
O=C(c1ccc2c(c1)OCO2)C1CCN(c2ccc(S(=O)(=O)C3(C(=O)NO)CCOCC3)cc2)CC1 [Example 796]	130 nM	5.7 nM	> 10 µM					
O=C(NO)C1(S(=O)(=O)c2ccc(N3CCC(c4ccccc4C(F)(F)F)CC3)cc2)CCOCC1 [Example 207]	900 nM	28.8 nM	> 10 µM					
O=C(c1cccc(OC(F)(F)F)c1)C1CCN(c2ccc(S(=O)(=O)C3(C(=O)NO)CCOCC3)cc2)CC1 [Example 725]	210 nM	25.1 nM	> 10 µM					
CCOc1cc(N2CCC(C(=O)NO)(S(=O)(=O)c3ccc(Oc4ccc(OC(F)(F)F)cc4)cc3)CC2)ncn1 [Example 411]	< 0.1 nM	0.2 nM	> 10 µM					
Cc1ccc(N2CCN(c3ccc(S(=O)(=O)C4(C(=O)NO)CCOCC4)cc3)CC2)cc1 [Example 535]	35 nM		> 10 µM					1.9 nM
O=C(NO)C1(S(=O)(=O)c2ccc(Oc3ccc(OC(F)(F)F)cc3)cc2)CCN(c2ccccn2)CC1 [Example 352]	0.3 nM	1.4 nM	> 10 µM					
Tetrahydro-N-hydroxy-4-[[4-(pentaflourooxy)phenyl]sulfonyl]-2H-thiopyran-4-carboxamide [Example 224]	< 0.1 nM	< 0.1 nM	4.5 µM					
CCOC(=O)C1CCN(CC(=O)N2CCC(C(=O)NO)(S(=O)(=O)c3ccc(N4CCC(C(=O)N5CC(C)CC(C)C5)CC4)cc3)CC2)CC1 (stereo not drawn) [Example 313]	> 10000 nM	77 nM	> 10 µM					
O=C(c1ccc2ccccc2c1)C1CCN(c2ccc(S(=O)(=O)C3(C(=O)NO)CCOCC3)cc2)CC1 [Example 844]	4700 nM	5 nM					> 10 µM	

— patent US6750228B1, “Aromatic sulfone hydroxamic acid metalloprotease inhibitor” (priority 1997, dated 2004)
